Earlier results in patent publication US20140032198A1, “APPLICATION OF MULTIDIMENSIONAL MATRIX FOR DRUG MOLECULAS DESIGN AND THE METHODOLOGIES FOR DRUG MOLECULAR DESIGN” (priority 2011, published 2014).

settings: qualitative comparison within captopril series, historical data

Compound | toxicity and side effects profiles
Benazepril | relatively weaker
CCC(=O)O[C@@H](O[P@](=O)(CCCCc1ccccc1)CC(=O)N1C[C@H](C2CCCCC2)C[C@H]1C(=O)O)C(C)C [Fosinopril] | relatively weaker
Lisinopril | relatively weaker
CCOC(=O)[C@H](CCc1ccccc1)N[C@@H](C)C(=O)N1Cc2ccccc2C[C@H]1C(=O)O [Quinapril] | relatively weaker
Ramipril | best toxicity and side effects profiles
